Experiments:
Type in all cases: in vitro ADME
[1] = Intrinsic clearance in rat liver microsomes; details: for CLint scaled at 0.75 h, 1 µM: pH 7.4, rat liver microsomes; for rat CLhep: predicted hepatic clearance from in vitro rat microsomal data
Method: Intrinsic Clearance in Rat and Human Liver Microsomes
The in vitro intrinsic clearance (CL int) was investigated in commercially obtained hepatic microsomes from rat and human donors using the substrate depletion (i.e., loss-of-parent vs. time, or t 1/2 method) approach with analyte detection via liquid chromatography-tandem mass spectrometry (LC-MS/MS). For each species, mean %parent remaining values at each time point were calculated from replicates raw data (analyte:IS peak area ratios) and used to determine in vitro t 1/2 and CLint.
Experiments were carried out using a robot-assisted (TECAN model Evo 200). Compound was incubated (1 µM final concentration) in buffer (100 mM potassium phosphate pH 7.4 with 3 mM MgCl2) containing hepatic microsomes (0.5 mg/mL final concentration) from multiple species, discretely, at 37 °C under constant orbital shaking. After 5 minutes (pre-incubation), reactions were initiated by addition of nicotinamide adenine dinucleotide phosphate (NADPH, 1 mM final concentration). At selected time intervals (0, 3, 7, 15, 25, and 45 minutes) post-addition of NADPH, aliquots (50 µL) were taken and placed into a 96-shallow-well plate containing ice cold acetonitrile (150 µL) with carbamazepine (IS, 50 nM). The plates were then centrifuged (3000 rcf at 4 °C) for 10 minutes. The supernatants were transferred to a new 96-shallow-well daughter plate and diluted (1:1 v/v) with water (Milli-Q filtered). The plates were then sealed in preparation for LC-MS/MS analysis (see below).
Raw LC-MS/MS peak area data generated from the assay samples were used to construct natural log-transformed %parent remaining vs. time plots (using t = 0 minute post-NADPH addition sample data as starting point set to 100%). In vitro compound half-life (t 1/2) values were obtained using the following […]
k is the slope from linear regression analysis of the natural log-transformed data (using means from Where all replicates at each time point). Resulting t 1/2 values were then used to calculate hepatic CLint values according to the following equation and with the use of species-specific scale-up factors for liver weight (grams) per total body weight (kg):
CL = 0.693 x 1 mL incubation x 45 mg microsomes x a gram liver
int in vitro t1/2 0.5 mg microsomes 1 gram liver kg body wt aScale-up factors used are 45 (rat) and 20 (human).1
Predicted hepatic clearance (CLhep) was calculated using the following equation: […]
Qh represents hepatic blood flow (mL/min/kg): 21 for human, 70 for rat, and 90 for mouse.

[2] = Binding in plasma from rat (equilibrium dialysis); details: fraction unbound
Method: Binding in plasma from rat and human.
Determination of compounds’ fraction unbound (f u) in plasma from rat and human was conducted in vitro via equilibrium dialysis using HTDialysis membrane plates. Dialysis membranes (four paired strips per HTD assay) were hydrated as described by the manufacturer and inserted into the HTD plate, which was assembled and prepared for sample addition by the dispensing of blank buffer (DPBS, 100 µL/well) into the ‘top half’ of each membrane-split well. Each compound was diluted into plasma from each species (5 µM final concentration), which was aliquoted in triplicate to the ‘bottom half’ of the prepared HTD plate wells. The HTD plate was sealed and incubated for 6 hours at 37 °C. […] Supernatant (60 µL) from each well of the daughter plates was then transferred to the corresponding wells of new daughter plates (96-shallow-well, V bottom) containing water (Milli-Q, 60 µL/well), and the plates were sealed in preparation for LC-MS/MS analysis (see below). fu was calculated as (analyte to IS MS peak area ratio from Trans-buffer side) / (analyte to IS MS peak area ratio from Cis-plasma side). Mean values for each species were calculated from 3 replicates. […]
Mean values for each species were calculated from 3 replicates.

[3] = Intrinsic clearance in human liver microsomes; details: for CLint scaled at 0.75 h, 1 µM: pH 7.4, human liver microsomes; for CLhep, human: predicted hepatic clearance from human microsomes

Structure (SMILES) | CLint scaled at 0.75 h, 1 µM [1] | rat CLhep [1] | rat f u,plasma [2] | CLint scaled at 0.75 h, 1 µM [3] | CLhep, human [3]
Cc1csc(NC(=O)c2cc(O[C@@H]3CCOC3)c3sccc3n2)n1 [19aA] | 143 mL/min/kg | 47.0 mL/min/kg | 0.027 | 140 mL/min/kg | 18.3 mL/min/kg
Cc1csc(NC(=O)c2cc(O[C@@H]3CCOC3)cc(F)c2F)n1 [27cA] | 116 mL/min/kg | 43.7 mL/min/kg | 0.040 | 241 mL/min/kg | 19.3 mL/min/kg
